From patent US7022716B2, “Cyclic amine phenyl beta-3 adrenergic receptor agonists” (Wyeth, priority 2000, dated 2006) come the findings set out here.

Counter-ions that a name gives are not always drawn. Where only a bound is given, the exact number is not on record here.

The target of data set [1] is T1, human β3 adrenergic receptor (Homo sapiens, UniProt P13945).
T1 construct: Full length β3 AR clones (402 amino acids) containing the last 6 amino acids of hβ3-AR are prepared; expressed in transfected cells; host or cells: CHO (Chinese hamster ovary) cells
Nature of the data set: cAMP (SPA) response in CHO cells transfected with human β3 adrenergic receptor. The format is cell-based. Also noted: key: fraction of maximal isoproterenol (10^-5 M) response. To be noted: maximal response relative to maximal response of isoproterenol at 10^-5 M. The method in brief: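 Reactions were stopped with 0.2N HCl and neutralised, and cAMP was measured by SPA. Activity is expressed as percent of the maximal 10^−5 M isoproterenol response.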

T1 sequence (P13945 whole entry): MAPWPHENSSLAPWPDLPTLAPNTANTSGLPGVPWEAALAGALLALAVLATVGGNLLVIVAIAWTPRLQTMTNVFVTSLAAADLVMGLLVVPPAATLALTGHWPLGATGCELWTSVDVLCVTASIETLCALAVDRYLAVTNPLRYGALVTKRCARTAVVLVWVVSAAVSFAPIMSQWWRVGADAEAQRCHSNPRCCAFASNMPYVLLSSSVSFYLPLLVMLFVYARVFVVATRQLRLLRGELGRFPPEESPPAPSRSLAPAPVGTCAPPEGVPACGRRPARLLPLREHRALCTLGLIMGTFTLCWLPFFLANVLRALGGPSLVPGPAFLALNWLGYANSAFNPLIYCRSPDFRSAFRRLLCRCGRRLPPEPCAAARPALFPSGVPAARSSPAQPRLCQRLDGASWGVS

What is called melting point is the temperature of the solid-liquid transition. As for `CS(=O)(=O)Nc1cc([C@@H](O)CNC2CCN(c3ccc(COCC(=O)O)cc3)CC2)ccc1O` [Example 185, (4-{4-[(2R)-2-Hydroxy-2-(4-hydroxy-3-methanesulfonylamino-phenyl)-ethylamino]-piperidin-1-yl}-benzyloxy)-acetic acid], the melting point was > 145 °C (dec.). In addition, the “IA(β3)” value in data set [1] came to 0.69.
In the case of `O=C1NC(=O)C(Cc2ccc(N3CCC(NC[C@@H](O)c4cccnc4)CC3)cc2)S1` (stereo partly drawn) [Example 131, 5-{4-[4-((2S)-2-Hydroxy-2-pyridin-3-yl-ethylamino)-piperidin-1-yl]-benzyl}-thiazolidine-2,4-dione], the melting point was > 88 °C (dec.). Further, the “IA(β3)” value in data set [1] is reported as 0.52.
Regarding `O=C1NC(=O)C(Cc2ccc(N3CCC(NCC(O)COc4cccc5[nH]c(=O)[nH]c45)CC3)cc2)N1` (stereo not drawn) [Example 86], the melting point is > 132 °C (dec.). Further, the “IA(β3)” value in data set [1] turned out to be 0.69.
On the same counts, the results for `CS(=O)(=O)Nc1cc(OC[C@@H](O)CNC2CCN(c3ccc(CC4SC(=O)NC4=O)cc3)CC2)ccc1O` (stereo partly drawn) [Example 92, N-[5-((2S)-3-{1-[4-(2,4-Dioxo-thiazolidin-5-ylmethyl)-phenyl]-piperidin-4-ylamino}-2-hydroxy-propoxy)-2-hydroxy-phenyl]-methanesulfonamide] are > 70 °C (dec.) and 1.1.
For `O=C1NC(=O)C(Cc2ccc(N3CCC(NC[C@H](O)COc4cccnc4)CC3)cc2)S1` (stereo partly drawn) [Example 125, 5-(4-{4-[(2S)-2-Hydroxy-3-(pyridin-3-yloxy)-propylamino]-piperidin-1-yl}-benzyl)-thiazolidine-2,4-dione], in that order: 130 to 132 °C and 0.36.
With `CS(=O)(=O)Nc1cc([C@@H](O)CNC2CCN(c3ccc(C(=O)NCC(=O)O)cc3)CC2)ccc1O` (as salt: sodium) [Example 197, [(4-{4-[((2R)-2-Hydroxy-2-{4-hydroxy-3-[(methylsulfonyl)amino]phenyl}ethyl)amino]-1-piperidinyl}benzoyl)amino]acetic acid], the melting point is > 85 °C (dec.).
With `CS(=O)(=O)Nc1cc([C@@H](O)CNC2CCN(c3ccc(C(=O)NCCC(=O)O)cc3)CC2)ccc1O` [Example 195, N-(4-{4-[((2R)-2-Hydroxy-2-{4-hydroxy-3-[(methylsulfonyl)amino]phenyl}ethyl)amino]-1-piperidinyl}benzoyl)-bete-alanine], the melting point was > 170 °C (dec.). Further, the “IA(β3)” value in data set [1] is on record as 0.98.
In turn, `O=C1NC(=O)C(=Cc2ccc(N3CCC(NC[C@H](O)COc4ccccc4)CC3)cc2)S1` [Example 83, 5-{4-[4-((2S)-2-Hydroxy-3-phenoxy-propylamino)-piperidin-1-yl]-benzylidene}-thiazolidine-2,4-dione] showed a melting point of 208 to 210 °C. Further, the “IA(β3)” value in data set [1] was found to be 0.68.
Turning to `COC(=O)[C@H](CC(C)C)NC(=O)c1ccc(N2CCC(NCC(O)c3ccc(O)c(NS(C)(=O)=O)c3)CC2)cc1` (stereo partly drawn) [Example 209, (2S)-2-(4-{4-[2-Hydroxy-2-(4-hydroxy-3-methanesulfonylamino-phenyl)-ethylamino]-piperidin-1-yl}-benzoylamino)-4-methyl-pentanoic acid methyl ester], the melting point is > 90 °C (dec.). In addition, the “IA(β3)” value in data set [1] came out at 1.
In the case of `CCOC(=O)Cn1nnnc1-c1ccc(N2CCC(NC[C@H](O)c3ccc(O)c(NS(C)(=O)=O)c3)CC2)cc1` [Example 98], the melting point is > 140 °C (dec.). The “IA(β3)” value in data set [1] was 1.
For `CS(=O)(=O)Nc1cc([C@@H](O)CNC2CCN(c3ccc(C(N)=O)cc3)CC2)ccc1O` [Example 190, 4-{4-[(2R)-2-Hydroxy-2-(4-hydroxy-3-methanesulfonylamino-phenyl)-ethylamino]-piperidin-1-yl}-benzamide], in that order: > 75 °C (dec.) and 1.12.
On the same counts, the results for `CS(=O)(=O)Nc1cc(C(O)CNC2CCN(c3ccc(-c4nnn[nH]4)cc3)CC2)ccc1O` (stereo not drawn) [Example 97, N-[2-Hydroxy-5-(1-hydroxy-2-{1-[4-(1H-tetrazol-5-yl)-phenyl]-piperidin-4-ylamino}-ethyl)-phenyl]-methanesulfonamide] are > 175 °C (dec.) and 0.9.
On the same counts, the results for `N=C1NC(=O)C(Cc2ccc(N3CCC(NC[C@H](O)COc4cccc5[nH]c(=O)[nH]c45)CC3)cc2)S1` (stereo partly drawn) [Example 89, 4-((2S)-2-Hydroxy-3-{1-[4-(2-imino-4-oxo-thiazolidin-5-ylmethyl)-phenyl]-piperidin-4-ylamino}-propoxy)-1,3-dihydro-benzoimidazol-2-one] are > 155 °C (dec.) and 1.1.
Regarding `CS(=O)(=O)Nc1cc([C@@H](O)CNC2CCN(c3ccc(C(=O)N[C@@H](Cc4ccccc4)C(=O)O)cc3)CC2)ccc1O` (as salt: sodium) [Example 205, (2S)-2-(4-{4-[(2R)-2-Hydroxy-2-(4-hydroxy-3-methanesulfonylamino-phenyl)-ethylamino]-piperidin-1-yl}-benzoylamino)-3-phenyl-propionic acid], the melting point was > 160 °C (dec.).
For the molecule `O=C1NC(=O)C(=Cc2ccc(N3CCC(NC[C@H](O)COc4cccc5[nH]c(=O)[nH]c45)CC3)c(F)c2)S1` [Example 69, 5-(3-Fluoro-4-{4-[(2S)-2-hydroxy-3-(2-oxo-2,3-dihydro-1H-benzoimidazol-4-yloxy)-propylamino]-piperidin-1-yl}-benzylidene)-thiazolidine-2,4-dione], the melting point lay in the range of 162 to 164 °C. Besides, in data set [1], the “IA(β3)” value is given as 1.
Regarding `O=C1NC(=O)C(=Cc2ccc(N3CCC(NC[C@H](O)COc4ccc(O)cc4)CC3)cc2)S1` [Example 76, 5-(4-{4-[(2S)-2-Hydroxy-3-(4-hydroxy-phenoxy)-propylamino]-piperidin-1-yl}-benzylidene)-thiazolidine-2,4-dione], the melting point was > 208 °C (dec.). Besides, the “IA(β3)” value in data set [1] was 0.94.
For `CS(=O)(=O)Nc1cc(C(O)CNC2CCN(c3ccc(C=C4NC(=O)NC4=O)cc3)CC2)ccc1O` (stereo not drawn) [Example 85, N-[5-(2-{1-[4-(2,5-Dioxo-imidazolidin-4-ylidenemethyl)-phenyl]-piperidin-4-ylamino}-1-hydroxy-ethyl)-2-hydroxy-phenyl]-methanesulfonamide], in that order: > 201 °C (dec.) and 0.94.
With `CC(C)[C@H](NC(=O)c1ccc(N2CCC(NC[C@H](O)c3ccc(O)c(NS(C)(=O)=O)c3)CC2)cc1)C(=O)O` (as salt: sodium) [Example 203, (2S)-2-(4-{4-[(2R)-2-Hydroxy-2-(4-hydroxy-3-methanesulfonylamino-phenyl)-ethylamino]-piperidin-1-yl}-benzoylamino)-3-methyl-butyric acid], the melting point is > 135 °C (dec.).
`CC(C)C[C@H](NC(=O)c1ccc(N2CCC(NC[C@H](O)c3ccc(O)c(NS(C)(=O)=O)c3)CC2)cc1)C(=O)O` (as salt: sodium) [Example 199, (2S)-2-(4-{4-[(2R)-2-Hydroxy-2-(4-hydroxy-3-methanesulfonylamino-phenyl)-ethylamino]-piperidin-1-yl}-benzoylamino)-4-methyl-pentanoic acid]: the melting point is > 177 °C (dec.).
The same measure, in the same setting: under `CC(C)S(=O)(=O)Nc1cc([C@@H](O)CNC2CCN(c3ccc(CC4SC(=O)NC4=O)cc3)CC2)ccc1O` (stereo partly drawn) [Example 94, (R)-Propane-2-sulfonic acid [5-(2-{1-[4-(2,4-dioxo-thiazolidin-5-ylmethyl)-phenyl]-piperidin-4-ylamino}-1-hydroxy-ethyl)-2-hydroxy-phenyl]-amide] stands > 175 °C (dec.).
For `Cc1ccc(OC[C@@H](O)CNC2CCN(c3ccc(CC4SC(=O)NC4=O)cc3)CC2)cn1` (stereo partly drawn) [Example 128, 5-(4-{4-[(2S)-2-Hydroxy-3-(6-methyl-pyridin-3-yloxy)-propylamino]-piperidin-1-yl}-benzyl)-thiazolidine-2,4-dione], the melting point is 87 °C (dec.).
The molecule `CS(=O)(=O)Nc1ccc(C(O)CNC2CCN(c3ccc(CC4SC(=O)NC4=O)cc3)CC2)cn1` (stereo not drawn) (as salt: salt) [Example 138, N-[5-(2-{1-[4-(2,4-Dioxo-thiazolidin-5-ylmethyl)-phenyl]-piperidin-4-ylamino}-1-hydroxy-ethyl)-pyridin-2-yl]-methanesulfonamide] had a melting point of 57 to 59 °C.
Still for that read-out and setting: the value for `Cl.Nc1ccc([C@H](O)CNC2CCN(c3ccc(CC4SC(=O)NC4=O)cc3)CC2)cn1` (stereo partly drawn) was 182 °C (dec.).
For `CS(=O)(=O)Nc1cc(C(O)CNC2CCN(c3ccc(CC4SC(=O)NC4=O)cc3)CC2)ccc1O` (stereo not drawn) [Example 78], the melting point is > 150 °C (dec.).
As to `O=C1NC(=O)C(Cc2ccc(N3CCC(NC[C@H](O)c4csc(C(F)(F)F)n4)CC3)cc2)S1` (stereo partly drawn) [Example 106, 5-{4-[4-({(2S)-2-Hydroxy-2-[2-(trifluoromethyl)-1,3-thiazol-4-yl]ethyl}amino)piperidine-1-yl]benzyl}-1,3-thiazolidine-2,4-dione], the melting point is 108 to 113 °C.
Still for that read-out and setting: the value for `O=C1NC(=O)C(Cc2ccc(N3CCC(NC[C@H](O)c4cc(-c5ccc(Cl)c(Cl)c5)no4)CC3)cc2)S1` (stereo partly drawn) [Example 110, 5-{4-[4-({(2S)-2-[3-(3,4-Dichlorophenyl)isoxazol-5-yl]-2-hydroxyethyl}-amino)piperidine-1-yl}benzyl}-1,3-thiazole-2,4-dione] was 110 °C; that for `CS(=O)(=O)Nc1cc([C@@H](O)CNC2CCN(c3ccc(C(=O)N4CCC[C@H]4C(=O)O)cc3)CC2)ccc1O` (as salt: sodium) [Example 201, 1-(4-{4-[(2R)-2-Hydroxy-2-(4-hydroxy-3-methanesulfonylamino-phenyl)-ethylamino]-piperidin-1-yl}-benzoyl)-pyrrolidine-(2S)-2-carboxylic acid] was > 220 °C (dec.).
